21 compounds from patent US8658794B2, “8-methyl-1-phenyl-imidazol[1,5-a]pyrazine compounds as Lck inhibitors and uses thereof” (Merck Sharp & Dohme B.V., priority 2010, dated 2014) can be followed below.

Molecules are shown by their SMILES.

The IC50 is the point on the concentration scale where inhibition reaches its midpoint.

The target in this test is T1, N-terminal His6-tagged recombinant full-length human Lck (Homo sapiens, UniProt P06239).
T1 construct: N-terminal His6-tagged recombinant full-length human Lck; His6 (N); purchased Millipore
T1 sequence (P06239 whole entry): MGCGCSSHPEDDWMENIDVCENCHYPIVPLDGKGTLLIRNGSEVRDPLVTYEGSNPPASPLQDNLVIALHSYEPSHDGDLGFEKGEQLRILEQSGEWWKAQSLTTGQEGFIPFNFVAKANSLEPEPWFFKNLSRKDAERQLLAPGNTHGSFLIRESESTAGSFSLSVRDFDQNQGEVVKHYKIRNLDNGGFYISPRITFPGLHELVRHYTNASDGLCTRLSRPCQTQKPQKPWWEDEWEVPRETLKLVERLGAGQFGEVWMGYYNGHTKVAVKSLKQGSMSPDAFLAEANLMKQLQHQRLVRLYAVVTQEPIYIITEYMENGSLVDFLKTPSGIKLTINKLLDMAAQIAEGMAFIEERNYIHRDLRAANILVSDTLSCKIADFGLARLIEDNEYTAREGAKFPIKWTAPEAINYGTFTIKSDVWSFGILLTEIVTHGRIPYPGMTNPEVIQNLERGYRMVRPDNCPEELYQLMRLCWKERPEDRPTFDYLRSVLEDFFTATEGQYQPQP
The test is described as follows: Lck IMAP assay. The note with it: ATP 6 μM (KM,ATP), enzyme pre-incubated with compounds for 60 minutes, values given as bins. In kind it is biochemical. From the text: Inhibition of kinase activity can be measured using the Immobilized Metal Assay for Phosphochemicals (IMAP) assay. IMAP is a homogeneous fluorescence polarization (FP) assay based on affinity capture of phosphorylated peptide substrates. IMAP uses fluorescein-labeled peptide substrates that, upon phosphorylation by a protein kinase, bind to so-called IMAP nanoparticles, which are derivatized with trivalent metal complexes. Binding causes a change in the rate of the molecular motion of the peptide, and results in an increase in the FP value observed for the fluorescein label attached to the substrate peptide (Gaudet et al. A homogeneous fluorescence polarization assay adaptable for a range of protein serine/threonine and tyrosine kinases. J. Biomol. Screen (2003) 8, 164-175).
Enzyme used was N-terminal His6-tagged recombinant full-length human Lck from Millipore. Phosphorylation substrate was a fluorescein-labeled peptide (5FAM-KVEKIGEGTYGVV—NH2) derived from p34cdc2 from Molecular Devices. Enzymes, substrate and ATP were diluted in Kinase Reaction buffer (10 mM Tris-HCl, 10 mM MgCl2, 0.01% Tween-20, 0.05% NaN3 pH 7.2, 1 mM DTT (dithiotreitol). The final volume at the kinase reaction step of the assay in the 384-well plate was 20 μl. Final amount of enzyme in the reaction was 0.1 U/ml. Enzyme was pre-incubated with compounds diluted in 1% DMSO (dimethylsulfoxide) for 60 minutes at room temperature in the dark. Subsequently, peptide substrate to a final concentration of 100 nM, and ATP to a final concentration of 6 μM were added and the mix was incubated for 120 minutes at room temperature in the dark. IMAP progressive binding buffer (75% 1× buffer A, 25% 1× buffer B with 1:600 Progressive Binding Reagent; Molecular Devices) was added, followed by an incubation step of 60 minutes at room temperature in the dark. Finally, the FP signal was read on an Envision Multilabel reader (Perkin Elmer).
All biochemical assays were run at KM,ATP of the enzyme using non-saturated conditions, meaning that during the incubation time it was assured that the signal increase was linear with time. For all biochemical assays a reference standard was used on each plate.
Ten point serial dilutions using a √10 dilution factor were used for dose response testing of compounds. Starting concentration was 10^-6M for Lck IMAP assays. Dose-response curves were run as two experiments on duplicate plates (N=1; n=2). All data was normalized to percentage effect based on maximum (Max) and minimum (Min) control values. On every 384 assay plate 16 wells were used as minimum wells (wells with ATP, 0% effect) and 16 wells were used as maximum wells (wells without ATP, 100% effect). 16 wells were used for measuring the background signal, obtained from a kinase reaction containing all constituents except the labeled peptide substrate. Percentage effect was plotted against log dilution concentration of compound to obtain sigmoid dose response curves. pIC50 values were calculated using ActivityBase.
As to `COc1cc(-c2nc([C@H]3CC[C@H](N4CCN(C)CC4)CC3)n3ccnc(C)c23)ccc1NC(=O)c1cc2cc(Cl)cnc2n1C` [Example 67, 5-Chloro-N-(2-methoxy-4-(8-methyl-3-((trans)-4-(4-methylpiperazin-1-yl)cyclohexyl)imidazo[1,5-a]pyrazin-1-yl)phenyl)-1-methyl-1H-pyrrolo[2,3-b]pyridine-2-carboxamide], the IC50 was at most 10 nM.
Under `COc1cc(-c2nc([C@H]3CC[C@H](N4CCN(C)CC4)CC3)n3ccnc(C)c23)ccc1NC(=O)c1cc2ccsc2[nH]1` [Example 57, N-(2-Methoxy-4-(8-methyl-3-((trans)-4-(4-methylpiperazin-1-yl)cyclohexyl)imidazo[1,5-a]pyrazin-1-yl)phenyl)-6H-thieno[2,3-b]pyrrole-5-carboxamide] stands at most 10 nM; under `COc1cc(-c2nc([C@H]3CC[C@H](N4CCN(C(C)=O)CC4)CC3)n3ccnc(C)c23)ccc1NC(=O)c1cc2c(OC)cccc2n1C` [Example 2, N-(4-(3-((Trans)-4-(4-acetylpiperazin-1-yl)cyclohexyl)-8-methylimidazo[1,5-a]pyrazin-1-yl)-2-methoxyphenyl)-4-methoxy-1-methyl-1H-indole-2-carboxamide], at most 10 nM; under `CC[C@H](C)OC(=O)Nc1ccc(-c2nc([C@H]3CC[C@H](N4CCN(C)CC4)CC3)n3ccnc(C)c23)cc1OC` [Example 48, (S)-sec-Butyl 2-methoxy-4-(8-methyl-3-((trans)-4-(4-methylpiperazin-1-yl)cyclohexyl)imidazo[1,5-a]pyrazin-1-yl)phenylcarbamate], at most 10 nM.
With `COc1cc(-c2nc([C@@H]3CCN(C(=O)CO)C3)n3ccnc(C)c23)ccc1NC(=O)c1cc2c(OC)cccc2n1C` [Example 53, (R)—N-(4-(3-(1-(2-hydroxyacetyl)pyrrolidin-3-yl)-8-methylimidazo[1,5-a]pyrazin-1-yl)-2-methoxyphenyl)-4-methoxy-1-methyl-1H-indole-2-carboxamide], the IC50 is at most 10 nM.
Under `COc1cc(-c2nc([C@@H]3CCN(CC(=O)N(C)C)C3)n3ccnc(C)c23)ccc1NC(=O)c1cc2c(OC)cccc2n1C` [Example 52, (R)—N-(4-(3-(1-(2-(dimethylamino)-2-oxoethyl)pyrrolidin-3-yl)-8-methylimidazo[1,5-a]pyrazin-1-yl)-2-methoxyphenyl)-4-methoxy-1-methyl-1H-indole-2-carboxamide] stands 10 to 100 nM; under `COc1cc(-c2nc(C3CCN(C4CCOCC4)CC3)n3ccnc(C)c23)ccc1NC(=O)c1cc2c(OC)cccc2n1C` [Example 30, 4-Methoxy-N-(2-methoxy-4-(8-methyl-3-(1-(tetrahydro-2H-pyran-4-yl)piperidin-4-yl)imidazo[1,5-a]pyrazin-1-yl)phenyl)-1-methyl-1H-indole-2-carboxamide], at most 10 nM.
Take `COc1cc(-c2nc(C3CCN(C)CC3)n3ccnc(C)c23)ccc1NC(=O)c1cc2c(F)cccc2n1C` [Example 45, 4-fluoro-N-(2-methoxy-4-(8-methyl-3-(1-methylpiperidin-4-yl)imidazo[1,5-a]pyrazin-1-yl)phenyl)-1-methyl-1H-indole-2-carboxamide]: the 50% inhibitory concentration (IC50) was 10 to 100 nM.
Take `COc1cc(-c2nc([C@H]3CC[C@H](CNC(C)=O)CC3)n3ccnc(C)c23)ccc1NC(=O)c1cc2c(OC)cccc2n1C` [Example 68, N-(4-(3-((trans)-4-(acetamidomethyl)cyclohexyl)-8-methylimidazo[1,5-a]pyrazin-1-yl)-2-methoxyphenyl)-4-methoxy-1-methyl-1H-indole-2-carboxamide]: the 50% inhibitory concentration (IC50) was at most 10 nM.
On to `COc1cc(-c2nc(C3CCN(CC(=O)N(C)C)CC3)n3ccnc(C)c23)ccc1NC(=O)c1cc2ccccc2n1C` [Example 18, N-(4-(3-(1-(2-(dimethylamino)-2-oxoethyl)piperidin-4-yl)-8-methylimidazo[1,5-a]pyrazin-1-yl)-2-methoxyphenyl)-1-methyl-1H-indole-2-carboxamide], for which the IC50 was at most 10 nM.
Take `COc1cc(-c2nc([C@H]3CC[C@H](N4CCN(C)CC4)CC3)n3ccnc(C)c23)ccc1NC(=O)c1cc2ccsc2n1C` [Example 56, N-(2-methoxy-4-(8-methyl-3-((trans)-4-(4-methylpiperazin-1-yl)cyclohexyl)imidazo[1,5-a]pyrazin-1-yl)phenyl)-6-methyl-6H-thieno[2,3-b]pyrrole-5-carboxamide]: the IC50 is at most 10 nM.
Regarding `CCC[C@H](C)OC(=O)Nc1ccc(-c2nc([C@H]3CC[C@@H](N4CCN(C)CC4)CC3)n3ccnc(C)c23)cc1OC` [Example 33f, (S)-pentan-2-yl 2-methoxy-4-(8-methyl-3-((cis)-4-(4-methylpiperazin-1-yl)cyclohexyl)imidazo[1,5-a]pyrazin-1-yl)phenylcarbamate], the IC50 was at most 10 nM.
Under `COc1cc(-c2nc([C@H]3CC[C@H](N4CCN(C)CC4)CC3)n3ccnc(C)c23)ccc1NC(=O)c1cc2c(OC)cccc2n1C` [Example 7, 4-Methoxy-N-(2-methoxy-4-(8-methyl-3-((trans)-4-(4-methylpiperazin-1-yl)cyclohexyl)imidazo[1,5-a]pyrazin-1-yl)phenyl)-1-methyl-1H-indole-2-carboxamide] stands at most 10 nM; under `COc1cc(-c2nc([C@@H]3CCN(C4CCOCC4)C3)n3ccnc(C)c23)ccc1NC(=O)c1cc2c(OC)cccc2n1C` [Example 35, (R)-4-methoxy-N-(2-methoxy-4-(8-methyl-3-(1-(tetrahydro-2H-pyran-4-yl)pyrrolidin-3-yl)imidazo[1,5-a]pyrazin-1-yl)phenyl)-1-methyl-1H-indole-2-carboxamide], 10 to 100 nM; under `COc1cc(-c2nc([C@H]3CC[C@H](N)CC3)n3ccnc(C)c23)ccc1NC(=O)c1cc2c(OC)cccc2n1C` [Example 39, N-(4-(3-((trans)-4-aminocyclohexyl)-8-methylimidazo[1,5-a]pyrazin-1-yl)-2-methoxyphenyl)-4-methoxy-1-methyl-1H-indole-2-carboxamide], at most 10 nM.
As to `COc1cc(-c2nc([C@H]3CC[C@H](N4CCN(C)CC4)CC3)n3ccnc(C)c23)ccc1NC(=O)c1cc2c(O)cccc2n1C` [Example 59, 4-Hydroxy-N-(2-methoxy-4-(8-methyl-3-((trans)-4-(4-methylpiperazin-1-yl)cyclohexyl)imidazo[1,5-a]pyrazin-1-yl)phenyl)-1-methyl-1H-indole-2-carboxamide], the IC50 was at most 10 nM.
For `COc1cc(-c2nc([C@H]3CC[C@H](CN(C)C)CC3)n3ccnc(C)c23)ccc1NC(=O)c1cc2c(OC)cccc2n1C` [Example 64, N-(4-(3-((trans)-4-((dimethylamino)methyl)cyclohexyl)-8-methylimidazo[1,5-a]pyrazin-1-yl)-2-methoxyphenyl)-4-methoxy-1-methyl-1H-indole-2-carboxamide], the IC50 was at most 10 nM.
`CCC[C@H](C)OC(=O)Nc1ccc(-c2nc([C@H]3CC[C@H](CNC(C)=O)CC3)n3ccnc(C)c23)cc1OC` [Example 69, (S)-pentan-2-yl 4-(3-((trans)-4-(acetamidomethyl)cyclohexyl)-8-methylimidazo[1,5-a]pyrazin-1-yl)-2-methoxyphenylcarbamate]: the IC50 is at most 10 nM.
As for `COc1cc(-c2nc(C3CCN(C4CCN(C(C)=O)CC4)CC3)n3ccnc(C)c23)ccc1NC(=O)c1cc2c(OC)cccc2n1C` [Example 49, N-(4-(3-(1′-acetyl-1,4′-bipiperidin-4-yl)-8-methylimidazo[1,5-a]pyrazin-1-yl)-2-methoxyphenyl)-4-methoxy-1-methyl-1H-indole-2-carboxamide], the IC50 was at most 10 nM.
To `COc1cc(-c2nc(C3CC(=O)N(C)C3)n3ccnc(C)c23)ccc1NC(=O)c1cc2c(OC)cccc2n1C` (stereo not drawn) [Example 73, 4-Methoxy-N-(2-methoxy-4-(8-methyl-3-(1-methyl-5-oxopyrrolidin-3-yl)imidazo[1,5-a]pyrazin-1-yl)phenyl)-1-methyl-1H-indole-2-carboxamide] belongs at most 10 nM; to `COc1cc(-c2nc([C@H]3CC[C@H](N4CCN(C)CC4)CC3)n3ccnc(C)c23)ccc1NC(=O)c1cc(Cl)cn1C` [Example 55, 4-Chloro-N-(2-methoxy-4-(8-methyl-3-((trans)-4-(4-methylpiperazin-1-yl)cyclohexyl)imidazo[1,5-a]pyrazin-1-yl)phenyl)-1-methyl-1H-pyrrole-2-carboxamide], at most 10 nM.
